Columns and labels:
[1] = target: 5-hydroxytryptamine receptor 2A (Rattus norvegicus, UniProt P14842); test: In vitro binding affinity for serotonin 5-hydroxytryptamine 2A receptor of rat cerebral cortex using [3H]ketanserin as radioligand; assay type: tissue-based
[2] = target: T1, 5-hydroxytryptamine receptor 1A (Rattus norvegicus, UniProt P19327); test: In vitro binding affinity for serotonin 5-hydroxytryptamine 1A receptor fof rat cerebral cortex using [3H]8-OH-DPAT as radioligand; assay type: tissue-based
T1 sequence (P19327 whole entry): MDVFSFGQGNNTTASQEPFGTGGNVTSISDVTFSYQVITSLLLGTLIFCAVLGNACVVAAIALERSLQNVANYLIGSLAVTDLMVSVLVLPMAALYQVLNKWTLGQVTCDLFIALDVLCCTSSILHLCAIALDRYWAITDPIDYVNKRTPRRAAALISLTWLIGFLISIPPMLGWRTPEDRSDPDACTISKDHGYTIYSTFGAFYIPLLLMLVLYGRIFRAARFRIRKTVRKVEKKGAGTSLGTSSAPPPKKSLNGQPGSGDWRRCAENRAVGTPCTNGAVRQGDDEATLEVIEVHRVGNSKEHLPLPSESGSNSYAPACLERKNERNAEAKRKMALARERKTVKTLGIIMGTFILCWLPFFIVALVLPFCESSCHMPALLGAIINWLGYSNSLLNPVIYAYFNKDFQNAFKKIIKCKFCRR

5-hydroxytryptamine receptor 2A, sequence (P14842 whole entry): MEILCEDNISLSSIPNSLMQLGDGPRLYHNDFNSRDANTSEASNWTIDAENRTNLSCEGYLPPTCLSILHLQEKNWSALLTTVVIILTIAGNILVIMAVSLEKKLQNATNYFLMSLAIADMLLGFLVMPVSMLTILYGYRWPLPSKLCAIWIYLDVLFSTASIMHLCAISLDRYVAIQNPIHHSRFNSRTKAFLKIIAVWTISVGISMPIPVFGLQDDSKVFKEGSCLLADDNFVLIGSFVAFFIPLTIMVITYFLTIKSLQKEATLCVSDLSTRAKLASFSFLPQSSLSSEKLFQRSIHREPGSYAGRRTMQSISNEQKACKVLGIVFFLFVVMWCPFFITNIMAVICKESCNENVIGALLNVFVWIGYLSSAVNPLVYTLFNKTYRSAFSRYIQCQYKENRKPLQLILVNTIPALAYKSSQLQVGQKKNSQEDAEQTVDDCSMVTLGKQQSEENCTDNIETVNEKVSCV

Compound | IC50 [1] | IC50 [2]
Fc1ccc(N2CCN(Cc3cn(-c4ccccc4)c(-c4ccccc4)n3)CC2)cc1 | 501 nM | 806 nM
Clc1cccc(N2CCN(Cc3cn(-c4ccccc4)c(-c4ccccc4)n3)CC2)c1 | 717 nM | 166 nM
CCOc1ccccc1N1CCN(Cc2cn(-c3ccc(F)cc3)c(-c3ccc(F)cc3)n2)CC1 |  | 51.9 nM
c1ccc(-c2nc(CN3CCN(c4ccccc4)CC3)cn2-c2ccccc2)cc1 | > 10000 nM | 2700 nM
FC(F)(F)c1ccc(N2CCN(Cc3cn(-c4ccccc4)c(-c4ccccc4)n3)CC2)cc1 | 1510 nM | 224 nM
Fc1ccc(-c2nc(CN3CCN(c4ccccc4)CC3)cn2-c2ccc(F)cc2)cc1 | 783 nM | 525 nM
COc1ccccc1N1CCN(Cc2cn(-c3ccc(F)cc3)c(-c3ccc(F)cc3)n2)CC1 | 259 nM | 171 nM
CCOc1ccccc1N1CCN(Cc2cn(-c3ccccc3)c(-c3ccccc3)n2)CC1 | 172 nM | 56.9 nM
COc1ccc(N2CCN(Cc3cn(-c4ccccc4)c(-c4ccccc4)n3)CC2)cc1 | 1920 nM | 8440 nM
FC(F)(F)c1cccc(N2CCN(Cc3cn(-c4ccccc4)c(-c4ccccc4)n3)CC2)c1 | 2130 nM | 206 nM
Clc1ccccc1N1CCN(Cc2cn(-c3ccccc3)c(-c3ccccc3)n2)CC1 | 142 nM | 255 nM
COc1cccc(N2CCN(Cc3cn(-c4ccccc4)c(-c4ccccc4)n3)CC2)c1 | 2340 nM | 271 nM
c1ccc(-c2nc(CN3CCN(c4ccccn4)CC3)cn2-c2ccccc2)cc1 | 2020 nM | 197 nM
CN1CCN(Cc2cn(-c3ccccc3)c(-c3ccccc3)n2)CC1 | > 10000 nM | 
Clc1ccc(N2CCN(Cc3cn(-c4ccccc4)c(-c4ccccc4)n3)CC2)cc1 | 315 nM | 1890 nM
c1ccc(CN2CCN(Cc3cn(-c4ccccc4)c(-c4ccccc4)n3)CC2)cc1 | 2170 nM | 1130 nM
Fc1ccccc1N1CCN(Cc2cn(-c3ccccc3)c(-c3ccccc3)n2)CC1 | 25.3 nM | 332 nM
COc1ccccc1N1CCN(Cc2cn(-c3ccccc3)c(-c3ccccc3)n2)CC1 | 131 nM | 
CN(C)CCCSc1ccccc1NC(=O)/C=C/c1ccccc1 [CINANSERIN] | 14.8 nM | 

— ChEMBL document CHEMBL1135623, “Synthesis and pharmacological evaluation of 1-[(1,2-diphenyl-1H-4-imidazolyl)methyl]-4-phenylpiperazines with clozapine-like mixed activities at dopamine D(2), serotonin, and GABA(A) receptors” (J Med Chem, 2002)
